Values joined by “and” are separate entries in the source; they are usually repeats but may differ in a detail not shown here. Equal entries are not always repeated. Toxic doses and inconclusive results are not listed. Rule as the data show it: active = T/C of 150% or more; inactive = T/C below 125%.
Tested on: L1210 leukemia ip in BDF1 mice, survival T/C
Assay: NCI In Vivo Anticancer Drug Screen. Data for tumor model L1210 Leukemia (intraperitoneal) in B6D2F1 (BDF1) mice
Conditions: endpoint: mean survival time, higher = longer survival
How it was run: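 Value reflects the ratio of survival in compound-treated mice to survival in vehicle-treated controls, with both groups carrying the same transplanted tumor.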

[1] = dose: 100.0 mg/kg/injection, schedule: Q04DX002 (ip), vehicle: Klucel (hydroxypropylcellulose) (HPC)
[2] = dose: 200.0 mg/kg/injection, schedule: Q04DX002 (ip), vehicle: Klucel (hydroxypropylcellulose) (HPC)
[3] = dose: 400.0 mg/kg/injection, schedule: Q04DX002 (ip), vehicle: Klucel (hydroxypropylcellulose) (HPC)
[4] = dose: 100.0 mg/kg/injection, schedule: Q01DX009 (ip), vehicle: saline with Tween-80
[5] = dose: 100.0 mg/kg/injection, schedule: Q04DX003 (ip), vehicle: Klucel (hydroxypropylcellulose) (HPC)
[6] = dose: 100.0 mg/kg/injection, schedule: Q04DX003 (ip), vehicle: saline with Tween-80
[7] = dose: 200.0 mg/kg/injection, schedule: Q01DX009 (ip), vehicle: saline with Tween-80
[8] = dose: 200.0 mg/kg/injection, schedule: Q04DX003 (ip), vehicle: saline with Tween-80
[9] = dose: 400.0 mg/kg/injection, schedule: Q01DX009 (ip), vehicle: saline with Tween-80
[10] = dose: 400.0 mg/kg/injection, schedule: Q04DX003 (ip), vehicle: Klucel (hydroxypropylcellulose) (HPC)
[11] = dose: 400.0 mg/kg/injection, schedule: Q04DX003 (ip), vehicle: saline with Tween-80
[12] = dose: 200.0 mg/kg/injection, schedule: Q04DX003 (ip), vehicle: Klucel (hydroxypropylcellulose) (HPC)
[13] = dose: 100.0 mg/kg/injection, schedule: Q01DX009 (ip), vehicle: Klucel (hydroxypropylcellulose) (HPC)
[14] = dose: 200.0 mg/kg/injection, schedule: Q01DX009 (ip), vehicle: Klucel (hydroxypropylcellulose) (HPC)
[15] = dose: 400.0 mg/kg/injection, schedule: Q01DX009 (ip), vehicle: Klucel (hydroxypropylcellulose) (HPC)
[16] = dose: 100.0 mg/kg/injection, schedule: Q04DX002 (ip), vehicle: saline
[17] = dose: 200.0 mg/kg/injection, schedule: Q04DX002 (ip), vehicle: saline
[18] = dose: 100.0 mg/kg/injection, schedule: Q01DX001 (ip), vehicle: saline with Tween-80
[19] = dose: 200.0 mg/kg/injection, schedule: Q01DX001 (ip), vehicle: saline with Tween-80
[20] = dose: 100.0 mg/kg/injection, schedule: Q04DX003 (ip), vehicle: saline
[21] = dose: 200.0 mg/kg/injection, schedule: Q04DX003 (ip), vehicle: saline
[22] = dose: 400.0 mg/kg/injection, schedule: Q04DX003 (ip), vehicle: saline

Measured: T/C

COc1ccccc1/C=N\N=C(N/N=C/c1ccccc1OC)N/N=C/c1ccccc1OC
inactive: dose: 15.0 mg/kg/injection, schedule: Q01DX Z (ip), vehicle: methylcellulose (MC) 96 % of control | dose: 30.0 mg/kg/injection, schedule: Q01DX Z (ip), vehicle: methylcellulose (MC) 108 % of control | dose: 60.0 mg/kg/injection, schedule: Q01DX Z (ip), vehicle: methylcellulose (MC) 101 % of control | dose: 60.0 mg/kg/injection, schedule: Q01DX Z (oral), vehicle: methylcellulose (MC) 102 % of control | dose: 120.0 mg/kg/injection, schedule: Q01DX Z (ip), vehicle: methylcellulose (MC) 102 % of control | dose: 120.0 mg/kg/injection, schedule: Q01DX Z (oral), vehicle: methylcellulose (MC) 100 % of control | dose: 240.0 mg/kg/injection, schedule: Q01DX Z (ip), vehicle: methylcellulose (MC) 97 % of control | dose: 325.0 mg/kg/injection, schedule: Q01DX Z (oral), vehicle: methylcellulose (MC) 86 % of control | dose: 360.0 mg/kg/injection, schedule: Q01DX Z (ip), vehicle: methylcellulose (MC) 100 % of control | dose: 480.0 mg/kg/injection, schedule: Q01DX Z (ip), vehicle: methylcellulose (MC) 110 % of control | dose: 480.0 mg/kg/injection, schedule: Q01DX Z (oral), vehicle: methylcellulose (MC) 104 % of control | dose: 675.0 mg/kg/injection, schedule: Q01DX Z (oral), vehicle: methylcellulose (MC) 108 % of control

O=S1(=O)CC(c2ccccc2)(c2ccccc2)N1
inactive: [1] 108 % of control | [2] 112 % of control | [3] 96 % of control

O=C1C(Br)=Cc2cccc3cccc1c23
inactive: dose: 25.0 mg/kg/injection, schedule: Q01DX009 (ip), vehicle: saline sonified 100 % of control | dose: 50.0 mg/kg/injection, schedule: Q01DX009 (ip), vehicle: saline sonified 97 % of control | dose: 100.0 mg/kg/injection, schedule: Q01DX009 (ip), vehicle: saline sonified 100 % of control | [4] 101 % of control | [5] 90 % of control | [6] 97 % of control | [7] 104 % of control | [8] 95 % of control | [9] 97 % of control | [10] 87 % of control | [11] 103 % of control

CCOc1ccccc1NC(=S)NC(=O)CCc1ccccc1
inactive: [4] 102 % of control and 104 % of control | dose: 100.0 mg/kg/injection, schedule: Q04DX002 (ip), vehicle: saline with Tween-80 104 % of control | [6] 105 % of control | [7] 93 % of control and 108 % of control | dose: 200.0 mg/kg/injection, schedule: Q04DX002 (ip), vehicle: saline with Tween-80 98 % of control | [8] 97 % of control | [9] 97 % of control and 89 % of control | dose: 400.0 mg/kg/injection, schedule: Q04DX002 (ip), vehicle: saline with Tween-80 91 % of control | [11] 89 % of control

O=C(COc1ccc(Cl)c(Cl)c1)NCc1ccc[n+](Cc2ccc(S(=O)(=O)F)cc2Cl)c1
inactive: dose: 25.0 mg/kg/injection, schedule: Q04DX003 (ip), vehicle: saline with Tween-80 109 % of control | dose: 50.0 mg/kg/injection, schedule: Q04DX003 (ip), vehicle: saline with Tween-80 101 % of control | [6] 86 % of control

ClC1=c2ccccc2=C2C(Cl)=c3ccccc3=C12
inactive: dose: 50.0 mg/kg/injection, schedule: Q04DX002 (ip), vehicle: Klucel (hydroxypropylcellulose) (HPC) 97 % of control | [1] 97 % of control

CC(C)CC(NC(=O)CNC(=O)OCc1ccccc1)C(=O)O (centres undefined)
inactive: [6] 101 % of control | [8] 97 % of control | [11] 91 % of control

CS(=O)(=O)Nc1nc2ccccc2s1
inactive: dose: 100.0 mg/kg/injection, schedule: Q04DX003 (ip), vehicle: carboxymethylcellulose (CMC) 98 % of control | dose: 200.0 mg/kg/injection, schedule: Q04DX003 (ip), vehicle: carboxymethylcellulose (CMC) 98 % of control | dose: 400.0 mg/kg/injection, schedule: Q04DX003 (ip), vehicle: carboxymethylcellulose (CMC) 97 % of control

c1ccc(Cc2nnc(Cc3ccccc3)nn2)cc1
inactive: [1] 91 % of control | [2] 102 % of control | [3] 105 % of control

O=C(N/N=C/c1ccccc1O)c1ccc(Cl)cc1
inactive: dose: 50.0 mg/kg/injection, schedule: Q01DX009 (ip), vehicle: saline with Tween-80 93 % of control | [4] 93 % of control | [7] 93 % of control

CC(C)CN(CC(C)C)c1nn[nH]n1
inactive: [5] 92 % of control | [12] 98 % of control | [10] 98 % of control

Cc1cccc(NC(=S)NCc2ccco2)c1
inactive: [13] 96 % of control | [14] 93 % of control | [15] 91 % of control

O=C(OC/C(=C\Cl)OC(=O)c1ccc([N+](=O)[O-])cc1)c1ccc([N+](=O)[O-])cc1
inactive: [13] 100 % of control | [14] 105 % of control | [15] 100 % of control

C/C(=C/c1c(C)c([N+](=O)[O-])c(C)c(C)c1[N+](=O)[O-])C(=O)O
inactive: dose: 100.0 mg/kg/injection, schedule: Q01DX001 (ip), vehicle: Klucel (hydroxypropylcellulose) (HPC) 100 % of control | [5] 114 % of control | dose: 200.0 mg/kg/injection, schedule: Q01DX001 (ip), vehicle: Klucel (hydroxypropylcellulose) (HPC) 91 % of control | [12] 97 % of control | dose: 400.0 mg/kg/injection, schedule: Q01DX001 (ip), vehicle: Klucel (hydroxypropylcellulose) (HPC) 107 % of control | [10] 101 % of control

CCN(CC)CCN(C(=O)C(O)(c1ccccc1)c1ccccc1)C(C)C
inactive: [16] 101 % of control | [17] 108 % of control

CN(C)c1ccc(NC(=O)NCCCl)cc1
inactive: [5] 106 % of control | [12] 103 % of control

CC(C)(C)[CH2][Sn]([Cl])([CH2]C(C)(C)C)[CH2]C(C)(C)C
inactive: dose: 12.5 mg/kg/injection, schedule: Q04DX002 (ip), vehicle: saline with Tween-80 92 % of control

O=CC(O)C(O)C(O)C(O)CO (centres undefined) (tested in a mixture with another compound)
inactive: dose: 6.25 mg/kg/injection, schedule: Q04DX002 (ip), vehicle: saline 95 % of control | dose: 12.5 mg/kg/injection, schedule: Q04DX002 (ip), vehicle: saline 100 % of control | dose: 25.0 mg/kg/injection, schedule: Q04DX002 (ip), vehicle: saline 103 % of control and 91 % of control | dose: 75.0 mg/kg/injection, schedule: Q04DX002 (ip), vehicle: saline 95 % of control | [16] 103 % of control | dose: 150.0 mg/kg/injection, schedule: Q04DX002 (ip), vehicle: saline 95 % of control | [17] 99 % of control | dose: 300.0 mg/kg/injection, schedule: Q04DX002 (ip), vehicle: saline 106 % of control | dose: 400.0 mg/kg/injection, schedule: Q04DX002 (ip), vehicle: saline 102 % of control

O=C(O)c1ccccc1C(=O)OC1=CS(=O)(=O)CC1
inactive: dose: 50.0 mg/kg/injection, schedule: Q01DX001 (ip), vehicle: saline with Tween-80 97 % of control | [18] 101 % of control and 104 % of control | [19] 95 % of control and 123 % of control | dose: 400.0 mg/kg/injection, schedule: Q01DX001 (ip), vehicle: saline with Tween-80 104 % of control and 105 % of control

COc1ccc(C)cc1NC(=O)c1ccc(Cl)cc1Cl
inactive: [13] 98 % of control | [14] 101 % of control | [15] 97 % of control

O=c1[nH]c(=O)n2ncnc2[nH]1
inactive: [20] 100 % of control | [21] 100 % of control | [22] 96 % of control

Cc1ccc([N+](=O)[O-])cc1S(=O)(=O)O
inactive: dose: 100.0 mg/kg/injection, schedule: Q01DX009 (ip), vehicle: saline 95 % of control | [20] 102 % of control | dose: 200.0 mg/kg/injection, schedule: Q01DX009 (ip), vehicle: saline 102 % of control | [21] 102 % of control | dose: 400.0 mg/kg/injection, schedule: Q01DX009 (ip), vehicle: saline 98 % of control | [22] 96 % of control

CC(=O)OC1(c2ccccc2)OC(=O)C(C)(C)c2ccccc21 (centres undefined)
inactive: [18] 94 % of control | [19] 91 % of control
